Data set [1] concerns HT-29 cells. Details: method as in PMID 38893461. Particulars: cited from earlier work.
Data set [2] relates to Giardia lamblia trophozoites (strain ATCC 30957) gene expression. Nature of the data set: Gene expression in trophozoites by RT-qPCR. In kind it is cell-based. Particulars: IC50 of each compound, 48 h. The protocol:
To determine the alterations in the parasite’s metabolism and cellular processes induced by the compounds, the expression levels of various genes encoding metabolic, structural, and oxidative stress response proteins were evaluated. G. lamblia strain ATCC 30957 was grown by following previously established culture parameters.
The culture tube was incubated on ice for 15 min and then centrifuged at 2000 rpm for 6 min to concentrate the cell pellet. Cell counting was performed using the trypan blue method. A 500 µL volume of Trizol ® was added, and it was gently homogenized; then, 60 µL of chloroform was added, and it was homogenized for 10 s with a vortex and incubated on ice for 3 min. Afterward, it was centrifuged at 12,000 rpm for 10 min, the aqueous phase was transferred to a new tube, 200 µL of isopropanol was added, and it was incubated for 3 h on ice. The sample was then centrifuged for 10 min at 12,000 rpm, and the supernatant was discarded. A 600 µL volume of ethanol (70%) was added, homogenized, and centrifuged. In the end, the supernatant was removed, and the sample was centrifuged again to dry the excess alcohol. The pellet was dried. Finally, it was resuspended in 25 µL of sterile MilliQ water. The concentration and purity of the extracted RNA were determined using the NanoDrop® Spectrophotometer ND-1000 (NanoDrop Technologies, Wilmington, DE, USA). […] RNA purity and integrity were confirmed using 0.8% (w/v) agarose gels under denaturing conditions.
The synthesis of cDNA was carried out with […] of purified RNA, and 1 U of […] was added (Thermo Thermo Fisher Scientific, Waltham, MA, USA). First-strand cDNA synthesis was carried out using 1 μg of DNase-treated RNA, combined with a 10 mM dNTP mix, oligo(dT)18 primer, and RevertAid reverse transcriptase (Thermo Scientific) in a final reaction volume of 20 μL. The reaction mixture was incubated at 42 °C for 60 min, followed by heat inactivation at 70 °C for 10 min. The synthesized cDNA was stored at −20 °C until further use. The level of purity and concentration of the cDNA were determined using the NanoDrop® Spectrophotometer ND-1000 (NanoDrop Technologies, Wilmington, DE, USA).
Specific oligonucleotides were designed to determine the expression levels of the gene’s phosphofructokinase, pyruvate kinase, glucose-6-phosphate dehydrogenase::6-phosphogluconolactonase, 6-phosphogluconate dehydrogenase, and transketolase. The design was based on gene sequences available in the National Center for Biotechnology Information (NCBI) database, adhering to the following criteria: an oligonucleotide length of 18–20 bp, a melting temperature (Tm) of 61 °C, a GC content of approximately 40%, and an amplicon size between 80 and 200 bp (Table 4). The oligonucleotides were synthesized by the Sequencing and Synthesis Unit of the Institute of Biotechnology, UNAM.
Additionally, previously reported primers that were used for the gene expression analysis of G. lamblia were also obtained (Table 4). These primers target genes encoding surface structural protein, giardin, actin, pyruvate:ferredoxin oxidoreductase, pyruvate phosphate dikinase, NADH oxidase, triose phosphate isomerase, glyceraldehyde-3-phosphate dehydrogenase, and Aldolase.
Amplification was performed using a StepOne™ Real-Time PCR System and the Fast SYBR® Green Master Mix kit (Applied Biosystems, Foster City, CA, USA) under the following conditions: an initial denaturation at 95 °C for 30 s, followed by 40 cycles of 95 °C for 3 s and 60 °C for 30 s. The melt curve analysis was conducted post-amplification by gradually increasing the temperature from 60 °C to 95 °C. […] Normalization was performed using the geometric mean of cycle threshold (Ct) values, and the relative expression levels of the target genes were calculated using the 2^−ΔΔCt method. Each reaction was performed in five replicates for all analyzed genes and strains. Results are presented as mean values ± standard deviation (SD).

The subject of data set [3] is G. lamblia strain resistant to nitazoxanide. Nature of the data set: Giardicidal activity in nitazoxanide-resistant strain (trypan blue count). In kind it is cell-based. Particulars: Giardia duodenalis, 48 h, read-out: IC50 G. lamblia (NTZ Resistant). As for the experimental part: A pre-culture at confluence was used as a starting point, and a concentration–response curve was plotted using an initial compound concentration of 25 μM in a final volume of 1.5 mL of TYI-S-33 medium, followed by serial dilutions of the compound. Each treatment was inoculated with 1.5 × 10^5 trophozoites and incubated for 48 h at 37 °C. At the end of the incubation, the number of trophozoites was determined using the trypan blue assay and by counting in a Neubauer chamber. The viability percentage at each compound concentration was calculated using the negative control as a reference.

Data set [4] has as its system G. lamblia strain ATCC 30957. Nature of the data set: Viability of Giardia lamblia trophozoite culture (trypan blue count). In kind it is cell-based. As for the experimental part:
Viability analysis was performed on G. lamblia strain ATCC 30957 grown in TYI-S-33 medium supplemented with 10% fetal bovine serum (FBS) and an antibiotic. Pre-culture was performed in 16 × 150 mm borosilicate tubes with a medium inoculated with 2 × 10^5 trophozoites and incubated at 37 °C for 48 h. For the recovery of the trophozoites, the vial was incubated in ice for 8 min and centrifuged for 6 min at 2000 rpm. The concentrated trophozoites were suspended in 1 mL of phosphate-buffered saline (PBS), and the number of trophozoites was counted by placing a 1:1 volume ratio of cell culture and trypan blue dye (4 g/L); then, a homogeneous drop of the mixture was taken and placed in the Neubauer chamber, and the total cells were counted.
The curves were plotted for concentrations of 0–50 µM of each compound. The assay was performed by placing 1.5 × 10^5 cells in 1.5 mL microcentrifuge tubes with a supplemented medium and different concentrations of each compound (0–50 µM). The negative control was performed under the same conditions without a compound, and the drugs NTZ and MTZ were used as positive controls. The samples were incubated for 48 h at 37 °C. At the end of the incubation, the cell viability count was performed using the trypan blue technique. The viability calculation was performed following the formula nv/(nv + nm), where nv represents the live cells and nm represents the dead cells; the viability value obtained was expressed as a percentage. The IC50 value of each compound was determined using the IC50 Calculator software (https://www.aatbio.com/tools/ic50-calculator).

A short description of data set [5]: Cytotoxicity, XTT viability assay, Caco-2. As to conditions: human; for selectivity ratio at 48 h: Caco-2. As for the experimental part:
(§1) The cytotoxicity assay was performed to evaluate the effect of the selected compounds on human cells. Colon cells were used because they are cell lines like those present in the microenvironment where G. lamblia colonizes, which is the small intestine of the host. The assay was performed using the human cell lines Caco-2 (ATCC HTB-37) and HT-29 (ATCC […]). Cell viability was determined using the Cell Proliferation Kit II (XTT, St. Louis, MO, EE. UU.). A cell suspension of 2 × 10^3 cells/mL was prepared in Dulbecco’s modified Eagle’s medium (DMEM) supplemented with 10% inactivated fetal bovine serum and an antibiotic (1% penicillin/streptomycin, 5000 U/mL, in a volume of 100 µL). The suspension was added to a 96-well plate. The plates were incubated for 24 h at 37 °C in a 5% CO2 atmosphere. […] The cells were incubated for 48 h at 37 °C in a 5% CO2 atmosphere. Cell viability was determined using the following steps. The medium in each well was replaced with 100 µL of fresh medium, and 50 µL of XTT labeling mix was added per well. The reaction was incubated for four hours at 37 °C and 5% CO2. After incubation, the absorbance of the samples on the plate was measured at 450 nm. Each compound was assayed in triplicate in three independent experiments. CC50 values (μM) were determined using the nonlinear regression function of GraphPad Prism version 8 for Windows.
(Tetrazolium dyes change colour on reduction, which living cells bring about.)

The test system of data set [6] is G6PD::6PGL enzyme of G. lamblia. Particulars: cited from earlier work.
The subject of data set [7] is Giardia lamblia (giardiasis). The arrangement: method as in PMID 11432808, PMID 34378955, PMID 32122530, PMID 37511272. As to conditions: cited from earlier work.
The test system of data set [8] is HT-29 cells. Nature of the data set: Cytotoxicity, XTT viability assay, HT-29. As to conditions: for Selectivity index (CC50/IC50) HT-29: CC50 HT-29 / IC50 trophozoite ATCC strain 30957. The protocol:
as §1

In data set [9] the test system is Caco-2 cells. Details: method as in PMID 38893461. Particulars: cited from earlier work.
The subject of data set [10] is Caco-2 cells. Nature of the data set: Cytotoxicity, XTT viability assay, Caco-2. As to conditions: read-out: CC50 Caco-2; 48 h, XTT. As for the experimental part:
as §1

Data set [11] is described as follows: Cytotoxicity, XTT viability assay, HT-29. As to conditions: human, HT-29 cells, CC50 HT-29, 48 h, XTT. The protocol:
as §1

Data set [12] has as its system Caco-2 and HT-29 cells. Nature of the data set: Cytotoxicity, XTT viability assay, stated for both cell lines. The class given is cell-based, human. As to conditions: 125 µM, 48 h. The protocol: The suspension was added to a 96-well plate. […] Cell viability was determined using the following steps.
[13] abbreviates: ratio of IC50 values, ATCC strain.

Read-outs that look alike come from different tables or passages of the source.

One may read the CC50 as the concentration at which the toxic effect on the cells reaches its halfway point. By IC50 is commonly meant the point on the concentration scale where inhibition reaches its midpoint.

As to `CC(=O)Oc1ccccc1C(=O)Nc1ncc([N+](=O)[O-])s1` [NTZ, nitazoxanide], in data set [1], the CC50 is 634 µM. For the same compound, in data set [2], the “6PGDH gene expression vs control” value is “differential overexpression”; the “G6PD::6PGL gene expression vs control” value was found to be 48.3 fold change; the “GAPDH gene expression vs control” value worked out at 17.2 fold change; the “GIA (giardin) gene expression, increase vs control” value is “did not show changes in expression”. Further, in data set [2], the “NADHox gene expression, increase vs control” value is “lower”; the “PFK gene expression vs control” value is reported as “reduction”; the “PFOR gene expression vs control” value is 14 fold change; the “TKT gene expression, increase vs control” value turned out to be 36.1 times. Further, in data set [3], the IC50 was 7.29 µM. Further, the IC50 in data set [4] (Giardia duodenalis, ATCC30957, 48 h, read-out: IC50 G. lamblia, trophozoites ATCC 30957, 48 h, 37 °C) was 3.4 µM. Further, the IC50 in data set [4] (read-out: IC50 G. lamblia, trophozoites ATCC 30957, 48 h, 37 °C) was 4.3 µM. Moreover, in data set [5], the selectivity ratio at 48 h was 134. In data set [6], the “Inhibition of GlG6PD::6PGL (in words)” value is “catalytic inhibitor”. Also, the “Efficacy in treatment of giardiasis” value in [7] was 71%. Besides, in [8], the “Selectivity index (CC50/IC50) HT-29” value stood at 147. The CC50 in data set [9] is 580 µM.

In the case of `COc1cccc(C(=O)Nc2ncc([N+](=O)[O-])s2)c1` [FLP-6, 3-Methoxy-N-(5-nitro-1,3-thiazol-2-yl)benzamide], in data set [2], the “ACT (actin) gene expression, increase vs control” value was 2.5 times; the “G6PD::6PGL gene expression vs control” value stood at 35 fold change; the “GIA (giardin) gene expression, increase vs control” value came out at 2.6 times; the “PFK gene expression vs control” value was 2.3 fold change. Further, in [2], the “TKT gene expression, decrease vs control” value is listed as 1.2 times and the “VSP gene expression, increase vs control” value was 5.9 times. Besides, the IC50 in data set [3] was determined as 0.54 µM. Further, the “Decrease of parasite viability” value in data set [4] (25 µM) is listed as 100%. In addition, the “Inhibition of growth of G. lamblia parasite culture” value in data set [4] (concentration not given) is given as “more than 98%”. Moreover, in data set [4] (setting [13]), the “Relative potency compared with MTZ” value came to 12 times and the “Relative potency compared with NTZ” value turned out to be 15 times. In addition, in data set [10], the CC50 came out at 178 µM. Also, the selectivity ratio at 48 h in [5] is 636. In addition, in data set [5] (Caco-2, CC50 Caco-2, 48 h, XTT), the CC50 at 48 h was 178 µM. For the same compound, the “Inhibition of the G6PD::6PGL enzyme (in words)” value in data set [6] is “not inhibitors of the enzyme”. Further, in [11], the CC50 at 48 h was 115 µM. The “Selectivity index (CC50/IC50) HT-29” value in data set [8] stood at 411. In addition, the CC50 in data set [8] (read-out: CC50 HT-29, 48 h, XTT) came to 115 µM. The “Decrease of cell viability” value in data set [12] is on record as “up to 30%”.

The values above are taken from PMC12111156, “Nitazoxanide Analogs: Synthesis, In Vitro Giardicidal Activity, and Effects on Giardia lamblia Metabolic Gene Expression” (International Journal of Molecular Sciences, 2025).
